Assay results as given in patent EP4800015A1, “AZABICYCLO DERIVATIVE AND PREPARATION METHOD THEREFOR, AND USE” (Zhejiang Hisun Pharmaceutical Co., Ltd., priority 2023, dated 2025).

Experiments:
[1] = molecular target: T1, recombinant human WRN (Homo sapiens, UniProt Q14191); test: Inhibition of WRN enzyme activity (ATPase), ADP-Glo Kinase Assay; type: biochemical; details: WRN protein 5 nM, Flap 0.1 nM, ATP 30 µM; read-out: IC50
T1 construct: purchased BPS 101264
In short: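 Recombinant human WRN (5 nM) was preincubated with compound (1000–0.004 nM) for 15 min at room temperature. Flap26 5'-flap DNA (0.1 nM) and 30 µM ATP were then added for 10 min in Tris pH 7.5, MgCl2, NaCl, BSA, Pluronic buffer. ADP was detected by ADP-Glo luminescence, and IC50 was obtained by nonlinear regression versus a 0.1% DMSO control.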

[2] = tested on: SW48 cells; test: Inhibition of SW48 cell proliferation (CellTiter-Glo); type: cell-based; details: Homo sapiens; SW48 cells (MSI-H), 120 hours
In short: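 SW48 (MSI-H) cells in L-15 with 10% FBS were seeded at 500 per well, cultured overnight at 37 °C, then exposed to compound at final concentrations of 10000 nM to 1.52 nM for 120 h. Viability was read by CellTiter-Glo luminescence, with inhibition relative to 0.1% DMSO. IC50 from nonlinear regression of log concentration versus inhibition.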

[3] = tested on: RL95-2 cells; test: Inhibition of RL95-2 cell proliferation (CellTiter-Glo); type: cell-based; details: Homo sapiens; RL95-2 cells (MSI-H), 120 hours
In short: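 RL95-2 (MSI-H) cells, 500/well in DMEM/F12 with 10% FBS, adhered overnight, then treated 120 h at 37 °C, 5% CO2 with compound at final 1.52-10000 nM. Viability by CellTiter-Glo luminescence. Inhibition relative to 0.1% DMSO control; IC50 from nonlinear regression of log concentration versus inhibition.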

Measured: IC50

T1 sequence (Q14191 whole entry): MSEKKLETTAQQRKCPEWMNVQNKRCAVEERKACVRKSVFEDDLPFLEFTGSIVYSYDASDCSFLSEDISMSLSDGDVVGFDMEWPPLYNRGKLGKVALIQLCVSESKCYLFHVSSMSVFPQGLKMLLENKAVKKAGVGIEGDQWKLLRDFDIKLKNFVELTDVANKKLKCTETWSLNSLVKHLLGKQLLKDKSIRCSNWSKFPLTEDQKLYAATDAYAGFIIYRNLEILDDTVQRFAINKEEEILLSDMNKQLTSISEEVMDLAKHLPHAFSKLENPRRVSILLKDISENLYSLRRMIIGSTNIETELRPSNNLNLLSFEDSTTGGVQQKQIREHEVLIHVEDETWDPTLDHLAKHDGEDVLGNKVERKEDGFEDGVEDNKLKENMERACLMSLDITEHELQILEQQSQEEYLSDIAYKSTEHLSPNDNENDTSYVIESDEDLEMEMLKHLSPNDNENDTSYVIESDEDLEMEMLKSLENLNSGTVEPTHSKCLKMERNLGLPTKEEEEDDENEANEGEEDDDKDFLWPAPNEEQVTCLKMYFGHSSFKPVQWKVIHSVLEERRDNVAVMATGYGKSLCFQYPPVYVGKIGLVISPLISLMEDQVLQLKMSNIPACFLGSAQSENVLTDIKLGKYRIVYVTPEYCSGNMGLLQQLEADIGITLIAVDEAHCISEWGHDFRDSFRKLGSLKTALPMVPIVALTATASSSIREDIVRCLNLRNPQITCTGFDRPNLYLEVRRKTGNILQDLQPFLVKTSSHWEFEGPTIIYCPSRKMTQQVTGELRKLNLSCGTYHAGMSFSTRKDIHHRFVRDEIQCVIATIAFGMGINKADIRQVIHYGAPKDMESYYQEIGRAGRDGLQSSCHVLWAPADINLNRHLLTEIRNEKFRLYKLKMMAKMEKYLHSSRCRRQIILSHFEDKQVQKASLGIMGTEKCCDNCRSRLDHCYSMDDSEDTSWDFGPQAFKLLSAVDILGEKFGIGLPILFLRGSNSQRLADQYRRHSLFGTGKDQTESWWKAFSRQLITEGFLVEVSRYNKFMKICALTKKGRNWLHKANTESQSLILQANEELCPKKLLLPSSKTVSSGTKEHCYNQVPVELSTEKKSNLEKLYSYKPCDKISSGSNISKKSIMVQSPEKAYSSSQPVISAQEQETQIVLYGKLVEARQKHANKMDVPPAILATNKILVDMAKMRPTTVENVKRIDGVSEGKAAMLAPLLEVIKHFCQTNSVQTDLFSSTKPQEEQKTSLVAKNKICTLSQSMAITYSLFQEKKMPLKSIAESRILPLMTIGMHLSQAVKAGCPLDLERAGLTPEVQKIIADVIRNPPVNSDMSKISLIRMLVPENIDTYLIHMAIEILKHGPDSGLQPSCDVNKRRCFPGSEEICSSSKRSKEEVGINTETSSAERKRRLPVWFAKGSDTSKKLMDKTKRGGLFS

CCc1c(N2CCN(C(=O)c3ncnc(C)c3O)CC2)c(=O)n2nc(C3=CC4CC(=O)CC4C3)nc2n1CC(=O)Nc1ccc(C(F)(F)F)cc1Cl (stereo not drawn) [Example 17, N-(2-chloro-4-(trifluoromethyl)phenyl)-2-(5-ethyl-6-(4-(5-hydroxy-6-methylpyrimidine-4-carbonyl)piperazin-1-yl)-7-oxo-2-(5-oxo-1,3a,4,5,6,6a-hexahydropentalen-2-yl)-[1,2,4]triazolo[1,5-a]pyrimidin-4(7H)-yl)acetamide]
0.001 to 0.1 µM: all assays above

CCc1c(N2CCN(C(=O)c3ncnc(C)c3O)CC2)c(=O)n2nc(-c3ccc4nccn4c3)nc2n1CC(=O)Nc1ccc(C(F)(F)F)cc1Cl [Example 126, N-(2-chloro-4-(trifluoromethyl)phenyl)-2-(5-ethyl-6-(4-(5-hydroxy-6-methylpyrimidine-4-carbonyl)piperazin-1-yl)-2-(imidazo[1,2-a]pyridin-6-yl)-7-oxo-[1,2,4]triazolo[1,5-a]pyrimidin-4(7H)-yl)acetamide]
0.001 to 0.1 µM: all assays above

CCc1c(N2CCN(C(=O)c3ncnc(C)c3O)CC2)c(=O)n2nc(-c3ccc4c(c3)CNCCO4)nc2n1CC(=O)Nc1ccc(C(F)(F)F)cc1Cl [Example 142, N-(2-chloro-4-(trifluoromethyl)phenyl)-2-(5-ethyl-6-(4-(5-hydroxy-6-methylpyrimidine-4-carbonyl)piperazin-1-yl)-7-oxo-2-(2,3,4,5-tetrahydrobenzo[f][1,4]oxazepin-7-yl)-[1,2,4]triazolo[1,5-a]pyrimidin-4(7H)-yl)acetamide]
0.001 to 0.1 µM: all assays above

CCc1c(N2CCN(C(=O)c3ncnc(C)c3O)CC2)c(=O)n2nc(-c3cc4ccccc4s3)nc2n1CC(=O)Nc1ccc(S(F)(F)(F)(F)F)cc1 [Example 98, 2-(2-(benzo[b]thiophen-2-yl)-5-ethyl-6-(4-(5-hydroxy-6-methylpyrimidine-4-carbonyl)piperazin-1-yl)-7-oxo-[1,2,4]triazolo[1,5-a]pyrimidin-4(7H)-yl)-N-(4-(pentafluoro-λ^6-sulfaneyl)phenyl)acet amide]
0.001 to 0.1 µM: all assays above

CCc1c(N2CCN(C(=O)c3ncnc(C)c3O)CC2)c(=O)n2nc(-c3cc4ccncc4s3)nc2n1CC(=O)Nc1ccc(C(F)(F)F)cc1Cl [Example 132, N-(2-chloro-4-(trifluoromethyl)phenyl)-2-(5-ethyl-6-(4-(5-hydroxy-6-methylpyrimidine-4-carbonyl)piperazin-1-yl)-7-oxo-2-(thieno[2,3-c]pyridin-2-yl)-[1,2,4]triazolo[1,5-a]pyrimidin-4(7H)-yl)a cetamide]
0.001 to 0.1 µM: all assays above

CCc1c(N2CCN(C(=O)c3ncnc(C)c3O)CC2)c(=O)n2nc(-c3cc4c(s3)CCNC4)nc2n1CC(=O)Nc1ccc(C(F)(F)F)cc1Cl [Example 134, N-(2-chloro-4-(trifluoromethyl)phenyl)-2-(5-ethyl-6-(4-(5-hydroxy-6-methylpyrimidine-4-carbonyl)piperazin-1-yl)-7-oxo-2-(4,5,6,7-tetrahydrothieno[3,2-c]pyridin-2-yl)-[1,2,4]triazolo[1,5-a]pyrimidin-4(7H)-yl)acetamide]
0.001 to 0.1 µM: all assays above

CCc1c(N2CCN(C(=O)c3ncnc(C)c3O)CC2)c(=O)n2nc(-c3ccc4c(c3)COC4)nc2n1CC(=O)Nc1ccc(C(F)(F)F)cc1Cl [Example 129, N-(2-chloro-4-(trifluoromethyl)phenyl)-2-(2-(1,3-dihydroisobenzofuran-5-yl)-5-ethyl-6-(4-(5-hydroxy-6-methylpyrimidine-4-carbonyl)piperazin-1-yl)-7-oxo-[1,2,4]triazolo[1,5-a]pyrimidin-4(7 H)-yl)acetamide]
0.001 to 0.1 µM: all assays above

CCc1c(N2CCN(C(=O)c3ncnc(C)c3O)CC2)c(=O)n2nc(-c3ccc4c(cnn4C)c3)nc2n1CC(=O)Nc1ccc(C(F)(F)F)cc1Cl [Example 113, N-(2-chloro-4-(trifluoromethyl)phenyl)-2-(5-ethyl-6-(4-(5-hydroxy-6-methylpyrimidine-4-carbonyl)piperazin-1-yl)-2-(1-methyl-1H-indazol-5-yl)-7-oxo-[1,2,4]triazolo[1,5-a]pyrimidin-4(7H)-yl) acetamide]
0.001 to 0.1 µM: all assays above

CCc1c(N2CCN(C(=O)c3ncnc(C)c3O)CC2)c(=O)n2nc(-c3ccc4c(ccn4C(C)C)c3)nc2n1CC(=O)Nc1ccc(C(F)(F)F)cc1Cl [Example 184, N-(2-chloro-4-(trifluoromethyl)phenyl)-2-(5-ethyl-6-(4-(5-hydroxy-6-methylpyrimidine-4-carbonyl)piperazin-1-yl)-2-(1-isopropyl-1H-indol-5-yl)-7-oxo-[1,2,4]triazolo[1,5-a]pyrimidin-4(7H)-yl) acetamide]
0.001 to 0.1 µM: all assays above

CCc1c(N2CCN(C(=O)c3ncnc(C)c3O)CC2)c(=O)n2nc(-c3ccc4c(c3)NCCO4)nc2n1CC(=O)Nc1ccc(C(F)(F)F)cc1Cl [Example 157, N-(2-chloro-4-(trifluoromethyl)phenyl)-2-(2-(3,4-dihydro-2H-benzo[b][1,4]oxazin-6-yl)-5-ethyl-6-(4-(5-hydroxy-6-methylpyrimidine-4-carbonyl)piperazin-1-yl)-7-oxo-[1,2,4]triazolo[1,5-a]pyrimidin-4(7H)-yl)acetamide]
0.001 to 0.1 µM: all assays above

CCc1c(N2CCN(C(=O)c3ncnc(C)c3O)CC2)c(=O)n2nc(-c3ccc4nn(C)cc4c3)nc2n1CC(=O)Nc1ccc(C(F)(F)F)cc1Cl [Example 99, N-(2-Chloro-4-(trifluoromethyl)phenyl)-2-(5-ethyl-6-(4-(5-hydroxy-6-methylpyrimidine-4-carbonyl)piperazin-1-yl)-2-(2-methyl-2H-indazol-5-yl)-7-oxo-[1,2,4]triazolo[1,5-a]pyrimidin-4(7H)-yl)acetamide]
0.001 to 0.1 µM: all assays above

CCc1c(N2CCN(C(=O)c3ncnc(C)c3O)CC2)c(=O)n2nc(-c3ccc4cn[nH]c4c3)nc2n1CC(=O)Nc1ccc(C(F)(F)F)cc1Cl [Example 156, N-(2-chloro-4-(trifluoromethyl)phenyl)-2-(5-ethyl-6-(4-(5-hydroxy-6-methylpyrimidine-4-carbonyl)piperazin-1-yl)-2-(1H-indazol-6-yl)-7-oxo-[1,2,4]triazolo[1,5-a]pyrimidin-4(7H)-yl)acetamide]
0.001 to 0.1 µM: all assays above
